Values joined by “and” are separate entries in the source; they are usually repeats but may differ in a detail not shown here. Identical values can stand only once.
How the values were obtained:
Assay in all cases: radiometric filter-binding kinase assay
BRSK2 (human) = BRSK2 (human) (UniProt Q8IWQ3); conditions: compound 100.0 µM; ATP 50 µM
CDK2 CCNA2 (human) = CDK2 CCNA2 (human) (UniProt P20248+P24941); conditions: compound 100.0 µM; ATP 20 µM
CHEK1 (human) = CHEK1 (human) (UniProt O14757); conditions: compound 100.0 µM; ATP 20 µM
Chain of CHEK1 (human) (O14757 whole entry, looked up): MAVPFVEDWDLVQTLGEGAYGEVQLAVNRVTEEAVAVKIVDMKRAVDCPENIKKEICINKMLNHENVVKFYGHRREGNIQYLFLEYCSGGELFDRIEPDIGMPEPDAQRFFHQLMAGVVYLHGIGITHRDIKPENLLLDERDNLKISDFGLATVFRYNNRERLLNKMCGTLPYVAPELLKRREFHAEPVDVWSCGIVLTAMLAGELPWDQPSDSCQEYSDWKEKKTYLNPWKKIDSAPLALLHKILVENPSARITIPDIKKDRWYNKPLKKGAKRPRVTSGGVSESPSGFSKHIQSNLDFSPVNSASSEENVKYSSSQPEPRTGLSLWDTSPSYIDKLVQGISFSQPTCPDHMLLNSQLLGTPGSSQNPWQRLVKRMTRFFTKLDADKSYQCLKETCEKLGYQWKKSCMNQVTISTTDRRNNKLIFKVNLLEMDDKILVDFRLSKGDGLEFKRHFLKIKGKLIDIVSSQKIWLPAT

EPHB1 (human) = EPHB1 (human) (UniProt P54762); conditions: compound 100.0 µM; ATP 20 µM
EPHB2 (human) = EPHB2 (human) (UniProt P29323); conditions: compound 100.0 µM; ATP 20 µM
Chain of EPHB2 (human) (P29323 whole entry, looked up): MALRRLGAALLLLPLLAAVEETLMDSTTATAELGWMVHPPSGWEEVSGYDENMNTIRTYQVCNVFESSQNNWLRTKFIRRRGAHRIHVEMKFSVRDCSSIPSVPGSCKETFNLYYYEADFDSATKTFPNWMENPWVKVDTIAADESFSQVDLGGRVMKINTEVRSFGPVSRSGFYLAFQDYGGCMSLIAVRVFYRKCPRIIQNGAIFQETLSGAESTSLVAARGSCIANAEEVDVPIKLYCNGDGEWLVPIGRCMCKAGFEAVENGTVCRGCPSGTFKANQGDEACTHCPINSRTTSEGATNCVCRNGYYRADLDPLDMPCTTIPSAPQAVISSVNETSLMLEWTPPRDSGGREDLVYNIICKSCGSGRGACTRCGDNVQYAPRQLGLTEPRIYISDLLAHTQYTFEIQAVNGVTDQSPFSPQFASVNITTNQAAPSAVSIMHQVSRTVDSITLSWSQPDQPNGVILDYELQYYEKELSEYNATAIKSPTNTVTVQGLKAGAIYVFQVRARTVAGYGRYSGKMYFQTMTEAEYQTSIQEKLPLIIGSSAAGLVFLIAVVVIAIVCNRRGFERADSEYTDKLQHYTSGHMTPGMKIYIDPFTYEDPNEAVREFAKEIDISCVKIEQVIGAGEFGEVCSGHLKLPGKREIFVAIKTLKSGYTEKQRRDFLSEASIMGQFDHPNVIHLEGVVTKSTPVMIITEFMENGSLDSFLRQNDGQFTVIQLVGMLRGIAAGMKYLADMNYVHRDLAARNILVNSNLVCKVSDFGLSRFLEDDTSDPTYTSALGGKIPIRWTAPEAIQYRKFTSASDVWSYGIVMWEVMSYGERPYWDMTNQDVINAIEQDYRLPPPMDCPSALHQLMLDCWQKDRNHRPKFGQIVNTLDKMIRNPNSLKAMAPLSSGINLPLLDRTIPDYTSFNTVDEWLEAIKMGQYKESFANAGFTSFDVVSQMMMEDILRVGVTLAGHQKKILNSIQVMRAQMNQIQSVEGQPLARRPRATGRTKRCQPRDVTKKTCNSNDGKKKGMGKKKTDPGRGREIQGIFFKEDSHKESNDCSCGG

EPHB3 (human) = EPHB3 (human) (UniProt P54753); conditions: compound 100.0 µM; ATP 20 µM
EPHB4 (human) = EPHB4 (human) (UniProt P54760); conditions: compound 100.0 µM; ATP 5 µM
Chain of EPHB4 (human) (P54760 whole entry, looked up): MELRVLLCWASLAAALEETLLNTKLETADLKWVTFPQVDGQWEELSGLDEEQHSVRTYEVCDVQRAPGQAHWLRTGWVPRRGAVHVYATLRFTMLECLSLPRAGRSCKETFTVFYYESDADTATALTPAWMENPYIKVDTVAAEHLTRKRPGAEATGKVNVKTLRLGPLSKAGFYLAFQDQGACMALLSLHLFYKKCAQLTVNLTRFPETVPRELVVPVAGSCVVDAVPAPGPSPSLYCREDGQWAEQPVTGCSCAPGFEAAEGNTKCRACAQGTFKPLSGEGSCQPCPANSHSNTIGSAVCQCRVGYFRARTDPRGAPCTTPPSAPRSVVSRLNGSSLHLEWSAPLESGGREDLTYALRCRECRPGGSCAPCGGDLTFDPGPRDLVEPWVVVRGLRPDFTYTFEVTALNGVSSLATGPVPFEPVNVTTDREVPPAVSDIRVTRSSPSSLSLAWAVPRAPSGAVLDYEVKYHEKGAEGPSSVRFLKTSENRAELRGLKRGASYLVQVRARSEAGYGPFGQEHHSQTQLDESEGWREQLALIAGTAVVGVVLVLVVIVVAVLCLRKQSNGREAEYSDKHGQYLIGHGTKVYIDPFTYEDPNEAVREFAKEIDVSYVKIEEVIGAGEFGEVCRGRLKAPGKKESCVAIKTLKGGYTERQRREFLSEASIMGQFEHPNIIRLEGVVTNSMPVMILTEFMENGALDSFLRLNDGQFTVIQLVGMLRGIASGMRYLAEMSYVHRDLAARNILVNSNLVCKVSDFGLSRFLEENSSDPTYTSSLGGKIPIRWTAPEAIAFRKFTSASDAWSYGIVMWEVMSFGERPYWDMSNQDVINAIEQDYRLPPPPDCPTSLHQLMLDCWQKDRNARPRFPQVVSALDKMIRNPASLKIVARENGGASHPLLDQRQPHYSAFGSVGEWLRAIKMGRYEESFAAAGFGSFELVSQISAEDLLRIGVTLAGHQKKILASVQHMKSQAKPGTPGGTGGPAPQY

GCK (human) = GCK (human) (UniProt Q12851); conditions: compound 100.0 µM; ATP 20 µM
GSK3B (human) = GSK3B (human) (UniProt P49841); conditions: compound 100.0 µM; ATP 5 µM
Chain of GSK3B (human) (P49841 whole entry, looked up): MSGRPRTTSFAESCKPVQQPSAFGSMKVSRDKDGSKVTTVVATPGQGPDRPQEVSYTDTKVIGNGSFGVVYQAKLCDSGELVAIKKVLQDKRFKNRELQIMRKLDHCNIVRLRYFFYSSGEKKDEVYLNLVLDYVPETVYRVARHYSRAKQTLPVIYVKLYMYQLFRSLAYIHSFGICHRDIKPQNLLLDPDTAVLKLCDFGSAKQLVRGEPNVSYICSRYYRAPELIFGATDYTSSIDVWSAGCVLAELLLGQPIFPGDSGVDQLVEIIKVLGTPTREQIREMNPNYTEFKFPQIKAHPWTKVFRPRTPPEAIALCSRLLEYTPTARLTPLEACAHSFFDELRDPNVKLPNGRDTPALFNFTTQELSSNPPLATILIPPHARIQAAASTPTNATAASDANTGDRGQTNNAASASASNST

HIPK1 (human) = HIPK1 (human) (UniProt Q86Z02); conditions: compound 100.0 µM; ATP 20 µM
IKBKB (human) = IKBKB (human) (UniProt O14920); conditions: compound 100.0 µM; ATP 5 µM
IKBKE (human) = IKBKE (human) (UniProt Q14164); conditions: compound 100.0 µM; ATP 50 µM
INSR (human) = INSR (human) (UniProt P06213); conditions: compound 100.0 µM; ATP 20 µM
JAK2 JH1 JH2 (human) = JAK2 JH1 JH2 (human) (UniProt O60674); conditions: compound 100.0 µM; ATP 5 µM
MAP2K2 (human) = MAP2K2 (human) (UniProt P36507); conditions: compound 100.0 µM; ATP 5 µM
MAP2K6 (human) = MAP2K6 (human) (UniProt P52564); conditions: compound 100.0 µM; ATP 50 µM
MAPK12 (human) = MAPK12 (human) (UniProt P53778); conditions: compound 100.0 µM; ATP 5 µM
MAPK13 (human) = MAPK13 (human) (UniProt O15264); conditions: compound 100.0 µM; ATP 5 µM
MAPK14 (human) = MAPK14 (human) (UniProt Q16539); conditions: compound 100.0 µM; ATP 50 µM
MAPK9 (human) = MAPK9 (human) (UniProt P45984); conditions: compound 100.0 µM; ATP 20 µM
MARK3 (human) = MARK3 (human) (UniProt P27448); conditions: compound 100.0 µM; ATP 5 µM
MARK4 (human) = MARK4 (human) (UniProt Q96L34); conditions: compound 100.0 µM; ATP 50 µM
MKNK1 (human) = MKNK1 (human) (UniProt Q9BUB5); conditions: compound 100.0 µM; ATP 50 µM
NTRK1 (human) = NTRK1 (human) (UniProt P04629); conditions: compound 100.0 µM; ATP 20 µM
NUAK1 (human) = NUAK1 (human) (UniProt O60285); conditions: compound 100.0 µM; ATP 20 µM
PLK1 (human) = PLK1 (human) (UniProt P53350); conditions: compound 100.0 µM; ATP 5 µM
Chain of PLK1 (human) (P53350 whole entry, looked up): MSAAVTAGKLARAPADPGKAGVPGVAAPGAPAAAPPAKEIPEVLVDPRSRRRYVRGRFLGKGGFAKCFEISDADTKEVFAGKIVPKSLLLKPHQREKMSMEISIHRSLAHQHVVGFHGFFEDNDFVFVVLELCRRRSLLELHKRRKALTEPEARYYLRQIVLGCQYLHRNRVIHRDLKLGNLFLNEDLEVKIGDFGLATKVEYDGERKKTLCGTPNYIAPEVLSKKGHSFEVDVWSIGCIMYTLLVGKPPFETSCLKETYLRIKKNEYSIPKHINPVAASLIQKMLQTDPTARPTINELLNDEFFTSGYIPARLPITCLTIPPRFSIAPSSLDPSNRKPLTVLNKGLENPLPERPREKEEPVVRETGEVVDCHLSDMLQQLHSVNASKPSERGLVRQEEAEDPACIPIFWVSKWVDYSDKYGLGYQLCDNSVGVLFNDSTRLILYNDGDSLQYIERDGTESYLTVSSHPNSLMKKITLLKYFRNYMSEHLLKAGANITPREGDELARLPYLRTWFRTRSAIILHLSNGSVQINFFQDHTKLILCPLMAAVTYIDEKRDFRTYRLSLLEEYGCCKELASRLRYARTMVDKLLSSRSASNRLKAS

PRKACA (human) = PRKACA (human) (UniProt P17612); conditions: compound 100.0 µM; ATP 20 µM
PRKCZ (human) = PRKCZ (human) (UniProt Q05513); conditions: compound 100.0 µM; ATP 5 µM
PTK6 (human) = PTK6 (human) (UniProt Q13882); conditions: compound 100.0 µM; ATP 20 µM
Chain of PTK6 (human) (Q13882 whole entry, looked up): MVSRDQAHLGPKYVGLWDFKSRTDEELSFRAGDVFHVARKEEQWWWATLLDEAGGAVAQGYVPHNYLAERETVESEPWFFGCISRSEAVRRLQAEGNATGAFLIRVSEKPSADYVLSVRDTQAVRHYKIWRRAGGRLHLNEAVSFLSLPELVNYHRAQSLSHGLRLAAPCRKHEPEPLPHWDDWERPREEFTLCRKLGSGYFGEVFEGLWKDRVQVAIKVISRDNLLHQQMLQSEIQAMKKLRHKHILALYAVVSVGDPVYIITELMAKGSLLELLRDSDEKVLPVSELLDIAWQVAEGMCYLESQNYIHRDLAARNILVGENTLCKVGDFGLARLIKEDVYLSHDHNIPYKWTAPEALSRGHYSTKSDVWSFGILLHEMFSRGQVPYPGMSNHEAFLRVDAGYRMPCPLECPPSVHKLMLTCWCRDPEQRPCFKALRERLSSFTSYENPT

ROCK2 (rat) = conditions: compound 100.0 µM; ATP 20 µM; accession and sequence are those of the human protein
RPS6KA3 KD1 KD2 (human) = RPS6KA3 KD1 KD2 (human) (UniProt P51812); conditions: compound 100.0 µM; ATP 50 µM
Chain of RPS6KA3 KD1 KD2 (human) (P51812 whole entry, looked up): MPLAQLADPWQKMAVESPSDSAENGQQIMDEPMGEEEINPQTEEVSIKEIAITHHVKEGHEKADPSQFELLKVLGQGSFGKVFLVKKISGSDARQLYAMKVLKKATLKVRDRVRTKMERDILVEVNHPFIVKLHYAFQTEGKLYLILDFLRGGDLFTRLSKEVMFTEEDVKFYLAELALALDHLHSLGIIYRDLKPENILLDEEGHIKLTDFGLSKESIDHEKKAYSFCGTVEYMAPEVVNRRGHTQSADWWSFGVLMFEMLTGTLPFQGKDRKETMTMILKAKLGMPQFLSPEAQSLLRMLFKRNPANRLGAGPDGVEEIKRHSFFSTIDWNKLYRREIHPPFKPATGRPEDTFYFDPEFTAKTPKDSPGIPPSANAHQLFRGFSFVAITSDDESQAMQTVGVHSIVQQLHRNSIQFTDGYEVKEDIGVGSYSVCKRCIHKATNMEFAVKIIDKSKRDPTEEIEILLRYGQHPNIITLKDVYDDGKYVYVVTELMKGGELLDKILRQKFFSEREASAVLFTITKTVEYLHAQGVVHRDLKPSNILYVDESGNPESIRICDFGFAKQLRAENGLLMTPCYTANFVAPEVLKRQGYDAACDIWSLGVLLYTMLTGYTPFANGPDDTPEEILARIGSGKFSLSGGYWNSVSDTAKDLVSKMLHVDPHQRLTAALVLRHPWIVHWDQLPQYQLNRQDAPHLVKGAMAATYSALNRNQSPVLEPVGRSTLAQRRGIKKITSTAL

SRC (human) = SRC (human) (UniProt P12931); conditions: compound 100.0 µM; ATP 50 µM
STK16 (human) = STK16 (human) (UniProt O75716); conditions: compound 100.0 µM; ATP 50 µM
Chain of STK16 (human) (O75716 whole entry, looked up): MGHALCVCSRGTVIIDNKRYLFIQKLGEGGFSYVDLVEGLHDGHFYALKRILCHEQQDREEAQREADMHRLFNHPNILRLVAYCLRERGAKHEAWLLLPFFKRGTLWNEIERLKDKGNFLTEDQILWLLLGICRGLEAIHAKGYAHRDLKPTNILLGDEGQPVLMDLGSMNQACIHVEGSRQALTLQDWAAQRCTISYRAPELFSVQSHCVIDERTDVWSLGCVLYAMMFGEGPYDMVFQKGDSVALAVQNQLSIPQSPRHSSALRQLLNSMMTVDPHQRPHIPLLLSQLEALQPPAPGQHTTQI

STK33 (human) = STK33 (human) (UniProt Q9BYT3); conditions: compound 100.0 µM; ATP 50 µM
TBK1 (human) = TBK1 (human) (UniProt Q9UHD2); conditions: compound 100.0 µM; ATP 50 µM
TEK (human) = TEK (human) (UniProt Q02763); conditions: compound 100.0 µM; ATP 20 µM

| inhibition (BRSK2 (human)) [%] | inhibition (CDK2 CCNA2 (human)) [%] | inhibition (CHEK1 (human)) [%] | inhibition (EPHB1 (human)) [%] | inhibition (EPHB2 (human)) [%] | inhibition (EPHB3 (human)) [%] | inhibition (EPHB4 (human)) [%] | inhibition (GCK (human)) [%] | inhibition (GSK3B (human)) [%] | inhibition (HIPK1 (human)) [%] | inhibition (IKBKB (human)) [%] | inhibition (IKBKE (human)) [%] | inhibition (INSR (human)) [%] | inhibition (JAK2 JH1 JH2 (human)) [%] | inhibition (MAP2K2 (human)) [%] | inhibition (MAP2K6 (human)) [%] | inhibition (MAPK12 (human)) [%] | inhibition (MAPK13 (human)) [%] | inhibition (MAPK14 (human)) [%] | inhibition (MAPK9 (human)) [%] | Structure (SMILES) | further results |
| --- | --- | --- | --- | --- | --- | --- | --- | --- | --- | --- | --- | --- | --- | --- | --- | --- | --- | --- | --- | --- | --- |
| 28 | 54 | 45 | 48 | 30 | 54 | 56 | 93 | 72 | 28 | 27 | 39 | 97 | 76 | 35 | 3 | 1 | 18 | 27 | 26 | Nc1nc2cnc(-c3ccccc3)cn2n1 | inhibition (MARK3 (human)): 59%; inhibition (MARK4 (human)): 44%; inhibition (MKNK1 (human)): 71%; inhibition (NTRK1 (human)): 61%; inhibition (NUAK1 (human)): 73%; inhibition (PLK1 (human)): 18%; inhibition (PRKACA (human)): 9%; inhibition (PRKCZ (human)): 13%; inhibition (PTK6 (human)): 53%; inhibition (ROCK2 (rat)): 52%; inhibition (RPS6KA3 KD1 KD2 (human)): 51%; inhibition (SRC (human)): 48%; inhibition (STK16 (human)): 7%; inhibition (STK33 (human)): 20%; inhibition (TBK1 (human)): 72%; inhibition (TEK (human)): 39% |
| 22 | 14 | 0 | 0 | 1 | 90 | 13 | 0 | 38 | 0 | 9 | 0 | 4 | 11 | 11 | 1 | 0 | 0 | 5 | 10 | CC(C)(C)Nc1c(COCc2ccccc2)nc2[nH]cnn12 | inhibition (MARK3 (human)): 13%; inhibition (MARK4 (human)): 22%; inhibition (MKNK1 (human)): 0%; inhibition (NTRK1 (human)): 6%; inhibition (NUAK1 (human)): 20%; inhibition (PLK1 (human)): 0%; inhibition (PRKACA (human)): 0% and 21%; inhibition (PRKCZ (human)): 0%; inhibition (PTK6 (human)): 21%; inhibition (ROCK2 (rat)): 0%; inhibition (RPS6KA3 KD1 KD2 (human)): 48%; inhibition (SRC (human)): 12%; inhibition (STK16 (human)): 0%; inhibition (STK33 (human)): 0%; inhibition (TBK1 (human)): 9%; inhibition (TEK (human)): 0% |
| 26 | 33 | 0 | 0 | 0 | 68 | 19 | 8 | 24 | 6 | 11 | 0 | 0 | 3 | 0 | 3 | 0 | 0 | 0 | 3 | CC(C)(C)Nc1c(C2CC2)nc2[nH]cnn12 | inhibition (MARK3 (human)): 0%; inhibition (MARK4 (human)): 15%; inhibition (MKNK1 (human)): 0%; inhibition (NTRK1 (human)): 27%; inhibition (NUAK1 (human)): 24%; inhibition (PLK1 (human)): 0%; inhibition (PRKACA (human)): 0% and 5%; inhibition (PRKCZ (human)): 0%; inhibition (PTK6 (human)): 25%; inhibition (ROCK2 (rat)): 2%; inhibition (RPS6KA3 KD1 KD2 (human)): 13%; inhibition (SRC (human)): 0%; inhibition (STK16 (human)): 0%; inhibition (STK33 (human)): 0%; inhibition (TBK1 (human)): 1%; inhibition (TEK (human)): 9% |

Source: the kinase profiling compilation of Christmann-Franck et al. (2016)
